System: K562
Assay: Induction of mitotic arrest in human K562 cells assessed as mitotic indices at 100 uM by light microscopy
Type: functional

COc1ccc(/C=C\c2cc(OC)c(OC)c(OC)c2)cc1O [COMBRETASTATIN A4]
Activity: 82%

Source: ChEMBL document CHEMBL3352299, “Antiproliferative 4-(1,2,4-oxadiazol-5-yl)piperidine-1-carboxamides, a new tubulin inhibitor chemotype” (Bioorg Med Chem Lett, 2014)
